In this test the target is Histamine H3 receptor (Homo sapiens, UniProt Q9Y5N1). The experiment in a line: Modulation of human histamine H3 receptor expressed in HEK293 cells assessed as change in forskolin-stimulated cAMP level after 1 hr by HTRF assay. Type of test: functional, cell-based. On the technique in general: Changes in cAMP serve as a functional read-out for many G protein-coupled receptors.
Histamine H3 receptor, sequence (Q9Y5N1 whole entry): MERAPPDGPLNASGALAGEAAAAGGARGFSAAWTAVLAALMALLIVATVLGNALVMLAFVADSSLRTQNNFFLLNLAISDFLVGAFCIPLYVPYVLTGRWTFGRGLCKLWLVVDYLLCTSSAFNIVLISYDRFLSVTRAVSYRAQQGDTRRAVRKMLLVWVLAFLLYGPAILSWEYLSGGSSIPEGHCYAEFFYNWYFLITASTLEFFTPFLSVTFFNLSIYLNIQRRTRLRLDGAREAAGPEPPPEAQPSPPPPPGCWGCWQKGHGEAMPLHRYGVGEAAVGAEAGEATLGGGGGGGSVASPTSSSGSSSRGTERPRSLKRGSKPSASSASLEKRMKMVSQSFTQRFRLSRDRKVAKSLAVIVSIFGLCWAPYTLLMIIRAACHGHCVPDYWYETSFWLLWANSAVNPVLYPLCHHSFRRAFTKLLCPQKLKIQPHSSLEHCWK

As a reminder, the IC50 is the concentration that gives 50% inhibition. Regarding `COC(=O)CC(=O)NC1(c2ccc(-c3ccc(CCN4CCC[C@H]4C)cc3)cc2)CCCC1`, the IC50 was 1.9 nM.

Consider `C[C@@H]1CCCN1CCc1ccc(-c2ccc(NC(=O)CCC(=O)O)cc2)cc1`, for which the half-maximal inhibitory concentration (IC50) was 2.5 nM.

Consider `C[C@@H](C(=O)NCCc1ccc(-c2ccc(CCN3CCC[C@H]3C)cc2)cc1)C(=O)OC(C)(C)C`, for which the concentration for half-maximal inhibition (IC50) was found to be 2.1 nM.

In the case of `COC(=O)C(C)(C)C(=O)Nc1ccc(-c2ccc(CCN3CCC[C@H]3C)cc2)cc1`, the IC50 is 1.2 nM.

Take `C[C@@H]1CCCN1CCc1ccc(-c2ccc(CCNC(=O)C(C)(C)C(=O)OC(C)(C)C)cc2)cc1`: the IC50 stood at 0.95 nM.

For `C[C@@H]1CCCN1CCc1ccc(-c2ccc(C3(NC(=O)CCCC(=O)O)CCCC3)cc2)cc1`, the IC50 was 2.1 nM.

Turning to `COC(=O)CC(=O)NCCc1ccc(-c2ccc(CCN3CCC[C@H]3C)cc2)cc1`, the 50% inhibitory concentration (IC50) worked out at 0.99 nM.

`COC(=O)CCCC(=O)NC1(c2ccc(-c3ccc(CCN4CCC[C@H]4C)cc3)cc2)CCCC1`: the half-maximal inhibitory concentration (IC50) came out at 15 nM.

The values above are taken from ChEMBL document CHEMBL3425474, “Biphenyl-ethyl-pyrrolidine derivatives as histamine h3 receptor modulators for the treatment of cognitive disorders” (ACS Med Chem Lett, 2015).
